Key:
Format in all cases: in vivo
banana [1] = assay: Minimum concentration protecting bananas from 333 μl/l ethylene (short-chain cyclopropenes injected as gas); settings: 24 hours exposure to compound as gas in 3-liter jar, then 333 μl/l ethylene 12-15 hours, observed for ripening
Method: To obtain the minimum concentration that protected bananas from 333 μl/l of ethylene, compounds described in U.S. Pat. No. 5,518,988 to Sisler et al. were applied to bananas according to the methods setforth herein. A known amount of an active compound was injected as a gas into a 3-liter jar containing a banana. The jar was sealed and the banana was removed after 24 hours. At the end of exposure, the banana was treated with 333 pill of ethylene in a 3-liter jar for 12-15 hours. It was then observed for ripening. The minimum concentration is the minimum concentration that protected the banana from 333 μl/l of ethylene. Ten microliters/liter of ethylene is usually considered to be a saturating amount.

banana [2] = assay: Time of protection (insensitivity to ethylene) of bananas, short-chain cyclopropenes; settings: saturating amount (at least 10 times minimum) for 24 hours, daily challenge with 333 μl/l ethylene 12-15 hours
Method: (§1) To obtain the time of protection, bananas were exposed to a saturating amount of the compound for 24 hours (this was done as above and at least 10 times the minimum protection amount was used). After exposure, bananas were removed from the jars and each day individual bananas were exposed to 333 pill of ethylene for 12-15 hours. The day the bananas responded to ethylene was recorded as the protection time.

[3] = test system: Patio variety tomato seedlings; assay: Tomato epinasty test, spray application treatment; settings: applied as a spray; ethylene 10 ppm v/v; scale of 0 to 10, 10 complete protection
Method: The test procedure is designed to determine the ability of an compound according to the present invention to block the epinastic growth response induced by ethylene in tomato plants when the compound is administered either as a volatile gas or as a component of a spray solution.
Treatment chambers are of an appropriate size for the test plants and are airtight. Each is fitted with a reusable septum to be used for injection of ethylene.
Test plants are Patio variety tomato seedlings planted two plants per three inch square plastic pot.
Spray application treatment entails using a DeVilbiss atomizer to completely cover all foliage and stems of two pots of Patio var. tomato plants with the appropriate amount of experimental compound dissolved in 10% acetone/90% water with 0.05% Silwett L-77 surfactant. Plants are air-dried in a drying hood for four hours then transferred to a 4.8 L polystyrene chamber which is sealed.
Ethylene gas equal to 10 ppm v/v final concentration is injected into the sealed chamber. Sixteen hours later the chambers are opened in an exhaust hood, allowed to air and the plants scored visually for the degree of protection against ethylene-induced epinasty conferred by the experimental compound when compared to ethylene treated and untreated controls on a scale of 0 to 10. A rating of 10 means complete protection. […]

banana [4] = assay: Minimum concentration protecting bananas from 333 μl/l ethylene (compound on filter paper in 3-liter jar)
Method: To obtain the minimum concentration that protected bananas from 333 μl/l of ethylene, compounds according to the present invention were applied to bananas according to the method described herein. A known amount of the active compound was placed on filter paper in a 3-liter jar to facilitate evaporation into the vapor state. The compounds were applied in an ethyl ether solution because the amount used was potentially too small to apply unless they were in solution. The amount of ether (about 10 μl in 3 l) was without effect when applied alone on a banana contained in a 3-liter jar. The jar was sealed and the banana was removed after 4 hours of exposure. At the end of exposure, the banana was treated with 333 μl/l of ethylene in a 3-liter jar for 12-15 hours. It was then observed for ripening. The minimum concentration is the concentration that protected the bananas from 333 μl/l of ethylene. Ten microliters/liter of ethylene is usually considered to be a saturating amount. This procedure was repeated for 8-, 24- and 48-hour treatment times to determine the minimum concentration of active compounds of the present invention needed to provide protection from 333 μl/l of ethylene for a given treatment time.

banana [5] = assay: Time of protection (insensitivity to ethylene) of bananas, compounds of the invention; settings: saturating amount (at least 10 times minimum) for 24 hours, daily challenge with 333 μl/l ethylene 12-15 hours
Method: as §1, with “done as described in Example 1 above and” for “done as above and”, “to 333 μl/l of ethylene” for “to 333 pill of ethylene”

[6] = test system: Patio variety tomato seedlings; assay: Tomato epinasty test, volatile gas treatment; settings: Gas 10 ppm; ethylene 10 ppm v/v; scale of 0 to 10, 10 complete protection, 0 no protection
Method: The test procedure is designed to determine the ability of an compound according to the present invention to block the epinastic growth response induced by ethylene in tomato plants when the compound is administered either as a volatile gas or as a component of a spray solution. Treatment chambers are of an appropriate size for the test plants and are airtight. Each is fitted with a reusable septum to be used for injection of ethylene. Test plants are Patio variety tomato seedlings planted two plants per three inch square plastic pot. Volatile gas treatment entails placing two pots of Patio var. tomatoes into a polystyrene 4.8 L volume treatment chamber along with one-half (upper or lower section) of a 50×9 mm plastic Petri dish containing a Gelman filter pad. The appropriate amount of experimental compound, dissolved in 1.0 ml acetone, is pipetted onto the filter pad and the chamber immediately sealed. Four hours later ethylene gas equal to 10 ppm v/v final concentration is injected into the sealed chamber. Sixteen hours later the chambers are opened in an exhaust hood, allowed to air and the plants scored visually for the degree of protection against ethylene-induced epinasty conferred by the experimental compound when compared to ethylene treated and untreated controls on a scale of 0 to 10. A rating of 10 means complete protection. A rating of 0 means no protection from the effects of ethylene.

[7] = Table 2 (values equal the 24-hour treatment of Table 1)
[8] = treatment time 4 hours, then 333 μl/l ethylene 12-15 hours
[9] = treatment time 8 hours, then 333 μl/l ethylene 12-15 hours
[10] = treatment time 24 hours, then 333 μl/l ethylene 12-15 hours
[11] = treatment time 48 hours, then 333 μl/l ethylene 12-15 hours

For “1-ethylcyclopropene [1-ethylcyclopropene (1-ECP)]”, the “Minimum Concentration” value (banana [1]) was 4 nl/l and the “Time of Insensitivity” value (banana [2]) was 12 days.
In the case of “1-methylcyclopropene [1-methylcyclopropene (1-MCP)]”, the “Minimum Concentration” value (banana [1]) is reported as 0.7 nl/l and the “Time of Insensitivity” value (banana [2]) is reported as 12 days.
`CCCCC1=CCC1` [1-butylcyclobutene, reference compound] was tested, and the “Protection against ethylene-induced epinasty, rating” value (from here on “Protection”) [3] was 5.
`CCCCC1=CC1` [1-butylcyclopropene (1-BCP), 1-butylcyclopropene] was tested, and the “Minimum Concentration” value (banana [1]) was 3 nl/l and the “Time of Insensitivity” value (banana [2]) was 12 days.
With `CCCCCC1=CCC1` [1-pentylcyclobutene] the “Protection” value [3] was 10.
With `CCCC1=CC1` [1-propylcyclopropene (1-PCP), 1-propylcyclopropene] the “Minimum Concentration” value (banana [1]) was 6 nl/l and the “Time of Insensitivity” value (banana [2]) was 12 days.
In the case of `CCCCCCC1=CC1` [Compound 1, 1-Hexyl-cyclopropene], the “Minimum Concentration” value (banana [4]; [7]) is reported as 0.4 nl/l, the “Minimum Concentration” value (banana [4]; [8]) is reported as 12.0 nl/l and the “Minimum Concentration” value (banana [4]; [9]) is reported as 0.8 nl/l. For the same compound, the “Minimum Concentration” value (banana [4]; [10]) was 0.4 nl/l, the “Minimum Concentration” value (banana [4]; [11]) was 0.3 nl/l and the “Time of Insensitivity” value (banana [5]) was 20 days. For the same compound, the “Protection” value [6] was 10.
`CCCCCCCCC1=CC1` [Compound 23, 1-octylcyclopropene] was tested, and the “Minimum Concentration” value (banana [4]; [7]) was 0.3 nl/l, the “Minimum Concentration” value (banana [4]; [8]) was 0.8 nl/l and the “Minimum Concentration” value (banana [4]; [9]) was 0.45 nl/l. The “Minimum Concentration” value (banana [4]; [10]) was 0.3 nl/l, the “Minimum Concentration” value (banana [4]; [11]) was 0.25 nl/l and the “Time of Insensitivity” value (banana [5]) was 25 days. For the same compound, the “Protection” value [6] was 10.
In the case of cyclopropene [cyclopropene (CP)], the “Minimum Concentration” value (banana [1]) is reported as 0.7 nl/l and the “Time of Insensitivity” value (banana [2]) is reported as 12 days.
